In patent US20050031537A1, “Multifunctional COX-2 inhibitors” (priority 2002, published 2005):

How the values were obtained:
EGFR = assay: Western blotting for expression of EGFR (test (b)); type: cell-based, human; settings: for Test (b) EGFR: at least 50% decrease in level of or 50% downregulation of expression: positive in 184B5, 184B5/HER, 1483, LNCaP, HeLa and CaSki cells, 24 h, Western blot
Excerpt: We turn now to the criterion (b), that is at least 50% decrease in level of or 50% downregulation of expression of Class I family of receptors tyrosine kinase. The Class I family of receptors tyrosine kinase is described in Reese, M. D., et al Stem Cells 15, pages 1-8 (1997), the whole of which in incorporated herein by reference. Members of the family include HER-2/neu, HER-3, HER-4 and epidermal growth factor receptor (EGFR) and are single-chain membrane spanning proteins which have significant homology to one another including about 80% amino acid identity in the tyrosine kinase domain.
Epidermal growth factor receptor (EGFR) is a 170 kDA glycoprotein. […] After ligand binding, EGFR undergoes dimerization which is essential for activation of its enzymatic kinase activity. EGFR is thus autophospliorylated and transphosphorylated on tyrosine residues, and the phosphorylated residues become the site of association of effector proteins. Overexpressed EGFR is intimately involved in modulating the epidermal growth factor growth signal and is considered as likely to confer a growth advantage. This conclusion is supported by the observation that tumor growth in nude mice is inhibited by treatment with anti-EGFR antibodies and tumorigenicity in nude mice is inhibited through blockage of the tyrosine kinase activity of the receptor.
To evaluate the expression of Class I family of receptors tyrosine kinase (EGFR, HER-2/neu), Western blotting can be performed. Antibodies for EGFR and HER-2/neu can be obtained from Santa Cruz Biotechnology, Inc.
Expression of EGFR (performed in 184B5, 184B5/HER, 1483, LNCaP, HeLa and CaSki cells)and HER-2/neu (performed in 184B5/HER, SKBR3 and BT474 cells) was assessed in cells after treatment with test compound for 24 hours. 5×10^6 cells were used for the treatment. Western blotting technique was used to assess the expression levels in cells treated with the test compound compared to vehicle alone. Western blotting was carried out as follows:
Cell lysates were prepared by treating cells with lysis buffer (150 mM NaCl, 100 mM Tris (pH 8.0), 1% Tween 20, 50 mM diethyldithiocarbamate, 1 mM EDTA, 1 mM phenylmethylsulfonyl fluoride, 10 μg/ml aprotinin, 10 μg/ml trypsin inhibitor and 10 μg/ml leupeptin). Lysates were sonicated for 20 s on ice and centrifuged at 10,000×g for 10 min to sediment the particulate material. The protein concentration of the supernatant was measured by the method of Lowry, O. H., et al., J. Biol. Chem. 193, 265-275 (195 1). SDS/PAGE was performed under reducing conditions on 10% polyacrylamide gels as described by Laemmli, U.K., Nature (Lond.) 227, 680-685 (1970). The resolved proteins were transferred onto nitrocellulose sheets as detailed by Towbin, H. et al., Proc. Natl. Acad. Sci. USA 76, 4350-4354 (1979). The nitrocellulose membrane was then incubated with anti-EGFR antiserum or anti-HER-2/neu antiserum. Secondary antibody to IgG conjugated to horseradish peroxidase was used. The various antisera were purchased from Santa Cruz Biotechnology, Inc., CA. The blots were probed with the Renaissance Western blot detection system according to the manufacturer's instructions (PerkinElmer Life Sciences, Boston, Mass.).

[1] = Patient with colon cancer (Example IV); type: in vivo, human; settings: person, 800 mg bid
Excerpt: A person presents with symptoms of constipation and rectal bleeding and is diagnosed with colon cancer.

[2] = Patient with oral premalignant lesion (Example VII); type: in vivo, human; settings: person, lozenges 100 mg twice a day for six months
Excerpt: A person presents with a white patch on their tongue and is diagnosed as having an oral premalignant lesion.

[3] = Patient with cervical intraepithelial neoplasia, HPV 16 detected (Example VIII); type: in vivo, human; settings: person, 0.5% in a cream on sponge/cervical cap, six months
Excerpt: A person presents to their gynecologist for evaluation. […] On biopsy, the patient is found to have cervical intraepithelial neoplasia. HPV 16 is detected. […] The SC-236 is discontinued with no recurrence of cervical intraepithelial neoplasia.

[4] = Patient with Alzheimer's disease (Example V); type: in vivo, human; settings: person two, 200 mg bid
Experimental: person two presents with symptoms of memory loss and is diagnosed with Alzheimer's disease. The patient is given and maintained on a 200 mg bid dose of indomethacin heptyl ester. The progression of the symptoms stops.

SMILES | Test (b) EGFR: at least 50% decrease in level of or 50% downregulation of expression (EGFR) | rate of progression of the colon cancer [1] | outcome of oral premalignant lesion [2] | repeat biopsy finding of cervical intraepithelial neoplasia [3] | decrease in level of EGFR (EGFR; 184B5 cells, 24 hours, Western blotting) | progression of the symptoms (memory loss, Alzheimer's disease) [4]
CS(=O)(=O)c1ccc(-n2nc(C(F)(F)F)cc2-c2ccc(F)cc2)cc1 [SC-58125, 4-[5-(4-fluorophenyl)-3-(trifluoromethyl)-1H-pyrazol-1-yl]benzenemethylsulfone] | + (A plus sign in the table indicates a positive result, that is meeting the test for each cell line as indicated above as providing a positive result) | – | – | – | – | –
COc1ccc(OC(=O)Cc2c(C)n(C(=O)c3ccc(Cl)cc3)c3ccc(OC)cc23)cc1 [Indomethacin Analog 3, 1-(p-chlorobenzoyl)-5-methoxy-2-methyl-1H-indole-3-acetic acid, 4-methoxyphenyl ester] | + (A plus sign in the table indicates a positive result, that is meeting the test for each cell line as indicated above as providing a positive result) | – | – | – | – | –
NS(=O)(=O)c1ccc(-n2nc(C(F)(F)F)cc2-c2ccc(Cl)cc2)cc1 [SC-236, 4-[5-(4-chlorophenyl)-3-(trifluoromethyl)-1H-pyrazol-1-yl]benzenesulfonamide] | + (A plus sign in the table indicates a positive result, that is meeting the test for each cell line as indicated above as providing a positive result) | decreases | resolution of the premalignant lesion | no further evidence of cervical intraepithelial neoplasia | more than 50% | –
CCCCCCCOC(=O)Cc1c(C)n(C(=O)c2ccc(Cl)cc2)c2ccc(OC)cc12 [Indomethacin Analog 1, indomethacin heptyl ester] | + (A plus sign in the table indicates a positive result, that is meeting the test for each cell line as indicated above as providing a positive result) | – | – | – | – | stops
Cc1ccc(-c2cc(C(F)(F)F)nn2-c2ccc(S(N)(=O)=O)cc2)cc1 [Celecoxib] | + (A plus sign in the table indicates a positive result, that is meeting the test for each cell line as indicated above as providing a positive result) | decreases | – | – | – | –
